We go through 16 compounds from patent publication US11358957B2, “Microbiocidal oxadiazole derivatives” (SYNGENTA PARTICIPATIONS AG, priority 2017, dated 2022).

One series relates to Phakopsora pachyrhizi. The series can be described thus: Fungicidal activity against Phakopsora pachyrhizi / soybean / leaf disc preventative (Asian soybean rust). In kind it is in vivo. Particulars: foliar, 200 ppm in the applied formulation, soybean leaf disks, compared to untreated, read-out: disease control. How it is done: Leaf disks or leaf segments of various plant species are cut from plants grown in a greenhouse. The cut leaf disks or segments are placed in multiwell plates (24-well format) onto water agar. The leaf disks are sprayed with a test solution before (preventative) or after (curative) inoculation. Compounds to be tested are prepared as DMSO solutions (max. 10 mg/mL) which are diluted to the appropriate concentration with 0.025% Tween20 just before spraying. The inoculated leaf disks or segments are incubated under defined conditions (temperature, relative humidity, light, etc.) according to the respective test system. A single evaluation of disease level is carried out 3 to 14 days after inoculation, depending on the pathosystem. Percent disease control relative to the untreated check leaf disks or segments is then calculated. Soybean leaf disks are placed on water agar in multiwell plates (24-well format) and sprayed with the formulated test compound diluted in water. One day after application leaf discs are inoculated by spraying a spore suspension on the lower leaf surface. After an incubation period in a climate cabinet of 24-36 hours in darkness at 20° C. and 75% rh leaf disc are kept at 20° C. with 12 h light/day and 75% rh. The activity of a compound is assessed as percent disease control compared to untreated when an appropriate level of disease damage appears in untreated check leaf disks (12 to 14 days after application). The following compounds at 200 ppm in the applied formulation give at least 80% disease control in this test when compared to untreated control leaf disks under the same conditions, which show extensive disease development.

For series [1], the system named is Puccinia recondita f. Sp. Tritici. Put plainly: Fungicidal activity against Puccinia recondita f. sp. tritici / wheat / leaf disc preventative (brown rust). Particulars: foliar, 200 ppm in the applied formulation, wheat leaf segments cv. Kanzler, preventative (inoculated 1 day after application), compared to untreated, read-out: disease control. In kind it is in vivo. In outline:
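Segments of wheat cv. Kanzler on water agar were sprayed with compound and inoculated with spores 1 day later. They were kept at 19 °C, 75% rh and 12 h light/12 h dark. Percent disease control versus untreated was scored 7–9 days after application; compounds were tested at 200 ppm.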

Series [2] has as its system Glomerella lagenarium (Colletotrichum lagenarium). The series can be described thus: Fungicidal activity against Glomerella lagenarium (Colletotrichum lagenarium) liquid culture / cucumber / preventative (anthracnose). In kind it is cell-based. Particulars: Colletotrichum orbiculare; 20 ppm in the applied formulation; liquid culture (PDB), inhibition of growth measured photometrically 3 to 4 days after application; compared to untreated; read-out: disease control. In outline: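 Conidia from cryogenic storage mixed into potato dextrose broth and added to compound in DMSO in microtiter plates. Incubated at 24° C.; growth inhibition read photometrically 3 to 4 days after application. Disease control expressed relative to untreated control, with compound at 20 ppm in the applied formulation.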

Series [3] concerns Puccinia recondita f. Sp. Tritici. Put plainly: Fungicidal activity against Puccinia recondita f. sp. tritici / wheat / leaf disc curative (brown rust). In kind it is in vivo. The following applies: foliar, 24 h, 200 ppm in the applied formulation, wheat leaf segments cv. Kanzler, curative (applied 1 day after inoculation), compared to untreated, read-out: disease control. In outline: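 Wheat leaf segments (cv. Kanzler) on agar were inoculated with brown rust spores, kept dark at 19 °C and 75% RH, then sprayed 1 day later with compound (DMSO stock diluted in 0.025% Tween20). Under 12 h light/12 h dark at 19 °C, percent disease control versus untreated was scored 6–8 days after application; 200 ppm applied.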

A word on the melting point: it is the temperature of the solid-liquid transition. Turning to `CN(C)c1ncn(Cc2ccc(-c3noc(C(F)(F)F)n3)s2)n1` [Compound 1.4, N,N-dimethyl-1-[[5-[5-(trifluoromethyl)-1,2,4-oxadiazol-3-yl]-2-thienyl]methyl]-1,2,4-triazol-3-amine], the melting point is 113 to 116 °C. The pest or weed control at 200 ppm in the series with Phakopsora pachyrhizi is not below 80%. The pest or weed control at 200 ppm in series [1] was not below 80%. The inhibition of growth at 20 ppm in series [2] is not below 80%. Further, in series [3], the pest or weed control at 200 ppm was not below 80%.
With `CC(c1ccc(-c2noc(C(F)(F)F)n2)s1)n1cc(C(=O)N2CCC2)cn1` (centres unmarked) [Compound 1.35, azetidin-1-yl-[1-[1-[5-[5-(trifluoromethyl)-1,2,4-oxadiazol-3-yl]-2-thienyl]ethyl]pyrazol-4-yl]methanone], the melting point lay in the range of 76 to 78 °C. Moreover, in the series on Phakopsora pachyrhizi, the pest or weed control at 200 ppm was not below 80%. Further, the pest or weed control at 200 ppm in series [1] is not below 80%. For the same compound, the inhibition of growth at 20 ppm in series [2] was not below 80%. In addition, in series [3], the pest or weed control at 200 ppm is not below 80%.
The compound `CNC(=O)c1cnn(Cc2ccc(-c3noc(C(F)(F)F)n3)s2)c1` [Compound 1.38, N-methyl-1-[[5-[5-(trifluoromethyl)-1,2,4-oxadiazol-3-yl]-2-thienyl]methyl]pyrazole-4-carboxamide] registered a melting point of 150.8 to 155.7 °C. For the same compound, the pest or weed control at 200 ppm in the series on Phakopsora pachyrhizi was not below 80%. For the same compound, in series [1], the pest or weed control at 200 ppm was not below 80%. Also, in series [2], the inhibition of growth at 20 ppm is not below 80%. Further, the pest or weed control at 200 ppm in series [3] was not below 80%.
For `COCCNC(=O)c1cnn(Cc2ccc(-c3noc(C(F)(F)F)n3)s2)c1` [Compound 1.39, N-(2-methoxyethyl)-1-[[5-[5-(trifluoromethyl)-1,2,4-oxadiazol-3-yl]-2-thienyl]methyl]pyrazole-4-carboxamide], the melting point was in the range of 135.3 to 137.9 °C. The pest or weed control at 200 ppm in the series on Phakopsora pachyrhizi was not below 80%. The pest or weed control at 200 ppm in series [1] is not below 80%. Moreover, the inhibition of growth at 20 ppm in series [2] is not below 80%. For the same compound, in series [3], the pest or weed control at 200 ppm is not below 80%.
With `CCOC(=O)c1ncn(Cc2ccc(-c3noc(C(F)(F)F)n3)s2)n1` [Compound 1.40, ethyl 1-[[5-[5-(trifluoromethyl)-1,2,4-oxadiazol-3-yl]-2-thienyl]methyl]-1,2,4-triazole-3-carboxylate], the melting point is 136 to 140 °C. For the same compound, the pest or weed control at 200 ppm in the series on Phakopsora pachyrhizi was not below 80%. In addition, in series [1], the pest or weed control at 200 ppm is not below 80%. Besides, the inhibition of growth at 20 ppm in series [2] was not below 80%. For the same compound, the pest or weed control at 200 ppm in series [3] is not below 80%.
Consider `CCOC(=O)c1ccn(Cc2ccc(-c3noc(C(F)(F)F)n3)s2)n1` [Compound 1.42, ethyl 1-[[5-[5-(trifluoromethyl)-1,2,4-oxadiazol-3-yl]-2-thienyl]methyl]pyrazole-3-carboxylate], for which the melting point lay within 120 to 124 °C. The pest or weed control at 200 ppm in the series on Phakopsora pachyrhizi was not below 80%. Besides, in series [1], the pest or weed control at 200 ppm was not below 80%. The inhibition of growth at 20 ppm in series [2] is not below 80%. In addition, the pest or weed control at 200 ppm in series [3] is not below 80%.
The compound `CCCOC(=O)c1ncn(Cc2ccc(-c3noc(C(F)(F)F)n3)s2)n1` [Compound 1.43, propyl 1-[[5-[5-(trifluoromethyl)-1,2,4-oxadiazol-3-yl]-2-thienyl]methyl]-1,2,4-triazole-3-carboxylate] returned a melting point of 140 to 160 °C. Besides, in the series on Phakopsora pachyrhizi, the pest or weed control at 200 ppm was not below 80%. Besides, in series [1], the pest or weed control at 200 ppm was not below 80%. Also, in series [2], the inhibition of growth at 20 ppm was not below 80%. Further, the pest or weed control at 200 ppm in series [3] is not below 80%.
For the compound `CCCOC(=O)c1ccn(Cc2ccc(-c3noc(C(F)(F)F)n3)s2)n1` [Compound 1.46, propyl 1-[[5-[5-(trifluoromethyl)-1,2,4-oxadiazol-3-yl]-2-thienyl]methyl]pyrazole-3-carboxylate], the melting point was 88 to 94 °C. The pest or weed control at 200 ppm with Phakopsora pachyrhizi is not below 80%. Moreover, the pest or weed control at 200 ppm in series [1] was not below 80%. Besides, the inhibition of growth at 20 ppm in series [2] is not below 80%. In addition, the pest or weed control at 200 ppm in series [3] was not below 80%.
`CNC(=O)c1ncnn1Cc1ccc(-c2noc(C(F)(F)F)n2)s1` [Compound 1.48, N-methyl-2-[[5-[5-(trifluoromethyl)-1,2,4-oxadiazol-3-yl]-2-thienyl]methyl]-1,2,4-triazole-3-carboxamide] yielded a melting point of 132 to 140 °C. Besides, the pest or weed control at 200 ppm with Phakopsora pachyrhizi was not below 80%. Besides, in series [1], the pest or weed control at 200 ppm was not below 80%. The inhibition of growth at 20 ppm in series [2] was not below 80%. In addition, the pest or weed control at 200 ppm in series [3] was not below 80%.
For `CNC(=O)c1ncn(Cc2ccc(-c3noc(C(F)(F)F)n3)s2)n1` [Compound 1.49, N-methyl-1-[[5-[5-(trifluoromethyl)-1,2,4-oxadiazol-3-yl]-2-thienyl]methyl]-1,2,4-triazole-3-carboxamide], the melting point fell in the range of 198 to 218 °C. Besides, the pest or weed control at 200 ppm with Phakopsora pachyrhizi is not below 80%. Further, the pest or weed control at 200 ppm in series [1] is not below 80%. In addition, the inhibition of growth at 20 ppm in series [2] is not below 80%. In addition, the pest or weed control at 200 ppm in series [3] is not below 80%.
In the case of `CNC(=O)c1ccn(Cc2ccc(-c3noc(C(F)(F)F)n3)s2)n1` [Compound 1.51, N-methyl-1-[[5-[5-(trifluoromethyl)-1,2,4-oxadiazol-3-yl]-2-thienyl]methyl]pyrazole-3-carboxamide], the melting point is 124 to 126 °C. Moreover, the pest or weed control at 200 ppm in the series on Phakopsora pachyrhizi was not below 80%. Further, in series [1], the pest or weed control at 200 ppm was not below 80%. The inhibition of growth at 20 ppm in series [2] was not below 80%. Moreover, in series [3], the pest or weed control at 200 ppm is not below 80%.
The compound `CNC(=O)c1ccnn1Cc1ccc(-c2noc(C(F)(F)F)n2)s1` [Compound 1.52, N-methyl-2-[[5-[5-(trifluoromethyl)-1,2,4-oxadiazol-3-yl]-2-thienyl]methyl]pyrazole-3-carboxamide] displayed a melting point of 148 to 151 °C. For the same compound, the pest or weed control at 200 ppm in the series with Phakopsora pachyrhizi was not below 80%. The pest or weed control at 200 ppm in series [1] is not below 80%. In addition, the inhibition of growth at 20 ppm in series [2] is not below 80%. Also, the pest or weed control at 200 ppm in series [3] was not below 80%.
For `CONC(=O)c1ccn(Cc2ccc(-c3noc(C(F)(F)F)n3)s2)n1` [Compound 1.56, N-methoxy-1-[[5-[5-(trifluoromethyl)-1,2,4-oxadiazol-3-yl]-2-thienyl]methyl]pyrazole-3-carboxamide], the melting point was in the range of 134 to 141 °C. In addition, the pest or weed control at 200 ppm in the series on Phakopsora pachyrhizi is not below 80%. The pest or weed control at 200 ppm in series [1] is not below 80%. The inhibition of growth at 20 ppm in series [2] is not below 80%. Moreover, the pest or weed control at 200 ppm in series [3] is not below 80%.
As to `CN(C)C(=O)c1ccn(Cc2ccc(-c3noc(C(F)(F)F)n3)s2)n1` [Compound 1.57, N,N-dimethyl-1-[[5-[5-(trifluoromethyl)-1,2,4-oxadiazol-3-yl]-2-thienyl]methyl]pyrazole-3-carboxamide], the melting point was 90 to 96 °C. Further, the pest or weed control at 200 ppm in the series with Phakopsora pachyrhizi is not below 80%. Also, the pest or weed control at 200 ppm in series [1] is not below 80%. The inhibition of growth at 20 ppm in series [2] is not below 80%. Moreover, the pest or weed control at 200 ppm in series [3] is not below 80%.
Regarding `CONC(=O)c1ncn(Cc2ccc(-c3noc(C(F)(F)F)n3)s2)n1` [Compound 1.59, N-methoxy-1-[[5-[5-(trifluoromethyl)-1,2,4-oxadiazol-3-yl]-2-thienyl]methyl]-1,2,4-triazole-3-carboxamide], the melting point was in the range of 168 to 178 °C. In addition, the pest or weed control at 200 ppm in the series on Phakopsora pachyrhizi was not below 80%. Besides, the pest or weed control at 200 ppm in series [1] is not below 80%. Further, the inhibition of growth at 20 ppm in series [2] was not below 80%. Further, in series [3], the pest or weed control at 200 ppm was not below 80%.
Consider `CONC(=O)c1ccnn1Cc1ccc(-c2noc(C(F)(F)F)n2)s1` [Compound 1.60, N-methoxy-2-[[5-[5-(trifluoromethyl)-1,2,4-oxadiazol-3-yl]-2-thienyl]methyl]pyrazole-3-carboxamide], for which the melting point was in the range of 105 to 115 °C. The pest or weed control at 200 ppm with Phakopsora pachyrhizi is not below 80%. Further, the pest or weed control at 200 ppm in series [1] was not below 80%. Further, in series [2], the inhibition of growth at 20 ppm is not below 80%. In series [3], the pest or weed control at 200 ppm was not below 80%.
